# According to patent US20100120703A1, “COMPOSITIONS AND METHODS FOR TREATING CANCER” (priority 2007, published 2010):
# Columns and labels:
# [1] = system: HepG2 cells; assay: Apoptosis determination by DNA fragmentation assay; format: cell-based, human
# Description: DNA fragmentation or DNA laddering is an indication of apoptosis. During the apoptosis process, the enzymes involved in DNA repair and cell replication are inactivated and nuclear proteins are degraded. After the nuclear structure is fragmented, DNA inside the nucleus is fragmented by the enzyme Caspase Activated DNase. This enzyme is only activated during apoptosis and causes the fragmentation of DNA into nucleosomal units (Hugh J M Brady, 2004). DNA fragmentation is used to identify the apoptosis event.
# HepG2 cells were treated and harvested as described in the foregoing examples. The cell pellet was re-suspended in 400 μl of the lysis buffer by vortexing. Twenty microliters of 10 mg/ml protease K were added into the solution after a complete dissolution. The solution was incubated at 37° C. for 3 hours to completely lyse the cells. After incubation, the solution was allowed to cool to room temperature. One hundred and fifty microliters of a saturated NaCl solution were added into the cell lysate and vortexed. The lysate was centrifuged at 7,000 rpm for 15 minutes. The supernatant was collected in a new microcentrifuge tube. One milliliter of ice cold absolute ethanol was added to the solution to precipitate DNA. After precipitation, the microcentrifuge tube was centrifuged at 14,000 rpm for 20 minutes at 4° C. […]
# [2] = system: Clone 9 cells; assay: Neutral red cell viability assay; format: cell-based, rat; conditions: SIN up to 1,000 μM, 72 hours
# Description: The neutral red (NR) cytotoxicity assay is a chemosensitivity assay for measuring cell survival/viability, based on the ability of viable cells to incorporate and bind neutral red, a supravital dye. NR is a weak cationic dye that readily penetrates cell membranes by non-ionic diffusion, accumulating intracellularly in lysosomes, where it binds with anionic sites in the lysosomal matrix. Alterations of the cell surface or the sensitive lysosomal membrane lead to lysosomal fragility and other changes that gradually become irreversible. Such changes brought about by the action of xenobiotics result in a decreased uptake and binding of NR. It is thus possible to distinguish between viable, damaged, or dead cells. (Babich, H et al, 1990)
# Three different cell lines HepG2, WRL-68 and Clone 9 cell lines were used in the experiment. HepG2 is a human hepatoblastoma cell line. It is a well known cell model in anti-HCC studies (Alshatwi A A, et al, 2006). WRL-68 is a human normal liver embryo cell line that has a morphologic structure similar to hepatocytes and hepatic primary cultures (Gutierrez-Ruiz, et al, 1994). This cell line was used as the control. Clone 9 is the rat Sprague Dawley (SD) liver normal cell line. […]
# HepG2, WRL-68 and Clone 9 cells were grown in complete culture medium (RPMI or DMEM), trypsinized and washed. […] The color was measured at OD540nm.
# [3] = system: Sprague Dawley (SD) rats; assay: DEN/CCl4-induced hepatoma in rats, promotion stage: liver observation and weight; format: in vivo, rat; conditions: 15 mg/kg oral daily for 28 weeks
# Experimental: Sprague Dawley (SD) rats were used as the animal model in the in vivo experiments. Male SD rats (80-90 g body weight) were obtained from Laboratory Animal Services Center of The Chinese University of Hong Kong. The rats were housed in the rodent animal room with a 12 hour light-dark cycle and constant temperature of 25° C. Four rats were housed in each case. Food and water were given ad libitum. All the animals were observed and weighed daily.
# The experiments were to induce hepatomas in rats. SIN was administered to the rats of treatment group at different stages. Chemical carcinogens were employed in the design of experiment to be able to induce hepatoma within a short time (Ha W. S. et al., 2001). Diethylnitrosamine (DEN) has been frequently used by other scientists to induce hepatoma. DEN administration in combined with CCl4 method was employed in the experiment to induce hepatoma in rats according to the established protocol (Kovalszky, I. et al., 1992).
# Experiments of the promotion stage were to study the effect of SIN at the promotion stage of cancer development. Fifteen rats were randomly divided into 3 groups, a negative control group (5 rats), a positive control group (5 rats) and an SIN-treatment group (5 rats). […]
# During the experiment, the body weight of the rat was monitored daily. […]
smiles,measurement,setting,value
"C=CC/C(=N/OS(=O)(=O)[O-])S[C@@H]1OC(CO)[C@@H](O)C(O)C1O.[K+] (some centres unmarked) [SIN, sinigrin]",DNA ladder on agarose gel,[1]; 0.25 mM SIN,A DNA ladder started to appear
same,DNA ladder on agarose gel,"[1]; 0.5 mM SIN, 96 hours",a DNA ladder was clearly visible
same,cell viability of Clone 9 cells (healthy liver cells),[2],no decrease in cell viability was observed
same,percentage of liver weight and liver weight index vs negative group,[3],only slightly higher
same,visible tumors on liver (direct observation),[3],no visible tumor
